In series [1] the target is T1, GCB (Homo sapiens, UniProt P04062).
T1 sequence (P04062 40-536): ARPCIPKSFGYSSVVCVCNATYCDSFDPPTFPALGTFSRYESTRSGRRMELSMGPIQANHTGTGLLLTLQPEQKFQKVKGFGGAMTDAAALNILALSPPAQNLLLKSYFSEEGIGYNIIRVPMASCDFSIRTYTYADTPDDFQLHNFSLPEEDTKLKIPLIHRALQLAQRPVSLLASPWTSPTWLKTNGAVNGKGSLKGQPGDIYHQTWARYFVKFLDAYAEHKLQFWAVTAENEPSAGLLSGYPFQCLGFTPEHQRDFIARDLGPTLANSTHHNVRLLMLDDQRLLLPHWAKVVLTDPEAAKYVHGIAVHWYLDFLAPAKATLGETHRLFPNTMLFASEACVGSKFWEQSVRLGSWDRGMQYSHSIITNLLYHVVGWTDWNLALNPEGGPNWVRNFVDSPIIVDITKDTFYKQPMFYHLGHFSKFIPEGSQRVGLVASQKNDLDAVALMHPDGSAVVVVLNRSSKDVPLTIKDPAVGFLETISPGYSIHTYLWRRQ
The series can be described thus: SDS-PAGE of GCB with non-pH-adjusted isofagomine. Format: physicochemical. The following applies: non-pH-adjusted isofagomine added to GCB. The procedure:
(§1) Samples were denatured at 37° C. for 15 minutes. SDS-PAGE was run on an 8-16% Novex™ Tris-glycine pre-cast gel. 50 mM dithiothretiol was used as the reducing agent.

Series [2] deals with T1, GCB. The series can be described thus: SDS-PAGE of GCB with pH-adjusted isofagomine. In kind it is physicochemical. The following applies: isofagomine pH adjusted to 6.0, GCB from 100 mg/ml, Day 0 and Day 3. The procedure: as §1
The results are shown in FIG. 4A for Day 0 and in FIG. 4B for Day 3.

Series [3] concerns the target T2, GCB (immobilized velaglucerase alfa) (Homo sapiens, UniProt P04062).
T2 sequence (P04062 40-536): T1 sequence (P04062 40-536)
The procedure: All SPR experiments were performed on a Biacore S-200 by a single-cycle kinetics method. For experiments at pH 7.4, 2 mg/ml GCB was diluted into the GE acetate pH 5.0 buffer to the final concentration of 100 μg/ml. The immobilization running buffer was 10 mM HEPES, 5 mM EDTA, 0.01% P-20, pH 7.4. This buffer was used directly in the binding assay subsequently.
For experiments at pH 5.0, 2 mg/ml GCB was diluted into the GE acetate pH 5.0 buffer to the final concentration of 100 μg/ml. The immobilization running buffer was 20 mM sodium phosphate, 2.7 mM potassium chloride, 137 mM sodium chloride, 5 mM tartrate, 0.01% P-20, pH 5.0. […] GCB was immobilized on a CM5 chip using a normal […] coupling procedure. The target immobilization level was 4000 RU.
For Biacore experiments at pH 7.4, the concentration range was 0.39-100 nM. The total was 9 points with 2-fold serial dilution. For Biacore experiments at pH 5.0, the concentration range was 0.39-100 nM. The total was 9 points with 2-fold serial dilution.
The conditions for the binding assay were as follows: 30 μl/min flow rate, 120 s association time, 600 s dissociation time, and 3 M magnesium chloride as the regeneration reagent.
For each of the pH 5.0 and pH 7.4 studies, two runs were performed. Black lines represent actual data and red lines represent model fitting.

Series [4] deals with T3, VPRIV (a form of GCB) in human serum (Homo sapiens, UniProt P04062).
T3 construct: Velaglucerase is secreted as a monomeric glycoprotein of approximately 63 kDa; Velaglucerase is composed of 497 amino acids; made in house
T3 sequence (P04062 40-536): T1 sequence (P04062 40-536)
The series can be described thus: VPRIV activity in human serum at 37° C. with IFG. In kind it is in vitro ADME. The following applies: 10 nM VPRIV, human serum 37° C.; for VPRIV activity remaining: 60 minutes. The procedure: Enzyme activity was measured using the cleavage of the 4-methylumbelliferone b-D-glucopyranoside substrate.

A short description of series [5]: pH of IFGT dissolved in water. Format: physicochemical. The conditions noted are these: 103 mg dissolved in 5 ml of water. The procedure:
When IFGT is dissolved in water, an acidic solution results. […] The pH was adjusted to 6.0 by adding 15 μl 10 M sodium hydroxide to the solution.

Series [6] has as its system endogenous serum GCB. The following applies: SC dose of 2.5 mg/kg.
Series [7] in a line: Serum exposure of GCB after SC velaglucerase alfa with IFG (ECL ELISA, 4MU-GPS activity assay). The following applies: 0.07 mg/kg IFGT added to 4 mg/kg GCB. Background: In an ELISA, binding on a coated surface is turned into a signal by an enzyme label.
Experimental: Test articles for dosing were prepared as frozen formulations to the animal facility prior to dosing. Test articles were thawed approximately 1 to 3 hours prior to dosing.

Where two headings read alike, the source gives them in different places.

`OC[C@H]1CNC[C@@H](O)[C@@H]1O` [IFG, isofagomine]: the figures for the “fragments of GCB on SDS-PAGE” value in series [1] (4° C.) and in series [1] (−80° C.) were “yielded fragments of GCB” and “not”, respectively. In addition, in series [2], the “smaller bands (<50 kDa) on SDS-PAGE” value is “No smaller bands having sizes of less than 50 kDa were observed”. Further, the ka in series [3] (First Run at pH 5.0) was found to be 12500 M⁻¹ s⁻¹; in series [3] (First Run at pH 7.4), 242000 M⁻¹ s⁻¹; in series [3] (Second Run at pH 5.0), 9883 M⁻¹ s⁻¹; in series [3] (Second Run at pH 7.4), 280000 M⁻¹ s⁻¹. For the same compound, the kd was found to be 0.00314 s⁻¹ in series [3] (First Run at pH 5.0), 0.002274 s⁻¹ in series [3] (First Run at pH 7.4), 0.001954 s⁻¹ in series [3] (Second Run at pH 5.0) and 0.001785 s⁻¹ in series [3] (Second Run at pH 7.4). Besides, the VPRIV activity remaining entry in series [4] (1 nM IFG) and in series [4] (10 nM IFG) was “around 40%” each time. In addition, the “loss of VPRIV activity” value in series [4] (30 nM IFG (3× molar ratio) and higher) is on record as “prevented most of the loss of activity”.

For the compound `O=C(O)[C@H](O)[C@@H](O)C(=O)O.OCC1CNCC(O)[C@@H]1O` [Isofagomine tartrate, isofagomine tartrate], the “pH of the solution” value in series [5] is 3.25. The “GCB activity in the serum” value in series [6] is reported as “increase GCB activity in the serum above the upper limit of normal”. In addition, in series [7] (4MU-GPS substrate), the “overall enzyme activity of GCB in serum” value was “substantially increased”. Besides, the “amount of GCB in serum” value in series [7] (ECL ELISA) was “substantially increased”.

(Values after patent US20200316178A1 (SHIRE HUMAN GENETIC THERAPIES, INC., priority 2017, published 2020).)
